Reference: ChEMBL document CHEMBL4342477, “Single Nucleotide Polymorphisms in the Melanocortin His-Phe-Arg-Trp Sequences Decrease Tetrapeptide Potency and Efficacy” (ACS Med Chem Lett, 2020)
Non-standard residues stand in square brackets, D forms with d. Residues, ends and D or L forms follow the SMILES beside them.

Experiments:
Type in all cases: functional, cell-based
[1] = molecular target: Melanocortin receptor 3 (Mus musculus, UniProt P33033); experiment: Agonist activity at mouse melanocortin receptor 3 expressed in HEK293 cells assessed as stimulation of cAMP accumulation incubated for 2 hrs by cAMP Alpha-screen assay
[2] = molecular target: Melanocortin receptor 4 (Mus musculus, UniProt P56450); experiment: Agonist activity at mouse melanocortin receptor 4 expressed in HEK293 cells assessed as stimulation of cAMP accumulation incubated for 2 hrs by cAMP Alpha-screen assay
[3] = molecular target: Melanocyte-stimulating hormone receptor (Mus musculus) (UniProt Q01727); experiment: Agonist activity at mouse melanocortin receptor 1 expressed in HEK293 cells assessed as stimulation of cAMP accumulation at 100 uM incubated for 2 hrs by cAMP AlphaScreen assay relative to control
[4] = molecular target: Melanocortin receptor 5 (Mus musculus) (UniProt P41149); experiment: Agonist activity at mouse melanocortin receptor 5 expressed in HEK293 cells assessed as stimulation of cAMP accumulation at 100 uM incubated for 2 hrs by cAMP Alpha-screen assay relative to control
[5] = molecular target: T1, Melanocyte-stimulating hormone receptor (Mus musculus, UniProt Q01727); experiment: Agonist activity at mouse melanocortin receptor 1 expressed in HEK293 cells assessed as stimulation of cAMP accumulation incubated for 2 hrs by cAMP AlphaScreen assay
[6] = molecular target: Melanocortin receptor 5 (Mus musculus, UniProt P41149); experiment: Agonist activity at mouse melanocortin receptor 5 expressed in HEK293 cells assessed as stimulation of cAMP accumulation incubated for 2 hrs by cAMP Alpha-screen assay
[7] = molecular target: Melanocortin receptor 4 (Mus musculus) (UniProt P56450); experiment: Agonist activity at mouse melanocortin receptor 4 expressed in HEK293 cells assessed as fold decrease in potency of stimulation of cAMP accumulation incubated for 2 hrs by cAMP Alpha-screen assay
[8] = molecular target: Melanocortin receptor 3 (Mus musculus) (UniProt P33033); experiment: Partial agonist activity at mouse melanocortin receptor 3 expressed in HEK293 cells assessed as stimulation of cAMP accumulation incubated for 2 hrs by cAMP Alpha-screen assay relative to NDP-MSH
[9] = molecular target: Melanocyte-stimulating hormone receptor (Mus musculus) (UniProt Q01727); experiment: Agonist activity at mouse melanocortin receptor 1 expressed in HEK293 cells assessed as fold decrease in potency of stimulation of cAMP accumulation incubated for 2 hrs by cAMP AlphaScreen assay
[10] = molecular target: Melanocortin receptor 4 (Mus musculus) (UniProt P56450); experiment: Agonist activity at mouse melanocortin receptor 4 expressed in HEK293 cells assessed as fold decrease in potency of stimulation of cAMP accumulation incubated for 2 hrs by cAMP Alpha-screen assay relative to Ac-His-DPhe-Arg-Trp-NH2
[11] = molecular target: Melanocortin receptor 4 (Mus musculus) (UniProt P56450); experiment: Partial agonist activity at mouse melanocortin receptor 4 expressed in HEK293 cells assessed as stimulation of cAMP accumulation incubated for 2 hrs by cAMP Alpha-screen assay relative to NDP-MSH
[12] = molecular target: Melanocortin receptor 5 (Mus musculus) (UniProt P41149); experiment: Partial agonist activity at mouse melanocortin receptor 5 expressed in HEK293 cells assessed as stimulation of cAMP accumulation incubated for 2 hrs by cAMP Alpha-screen assay relative to NDP-MSH
[13] = molecular target: Melanocortin receptor 3 (Mus musculus) (UniProt P33033); experiment: Agonist activity at mouse melanocortin receptor 3 expressed in HEK293 cells assessed as stimulation of cAMP accumulation at 100 uM incubated for 2 hrs by cAMP Alpha-screen assay relative to control
[14] = molecular target: T1, Melanocyte-stimulating hormone receptor; experiment: Agonist activity at mouse melanocortin receptor 1 expressed in HEK293 cells assessed as stimulation of cAMP accumulation incubated for 6 hrs by beta-galactosidase cAMP assay

Sequence of Melanocortin receptor 3 (P33033 whole entry): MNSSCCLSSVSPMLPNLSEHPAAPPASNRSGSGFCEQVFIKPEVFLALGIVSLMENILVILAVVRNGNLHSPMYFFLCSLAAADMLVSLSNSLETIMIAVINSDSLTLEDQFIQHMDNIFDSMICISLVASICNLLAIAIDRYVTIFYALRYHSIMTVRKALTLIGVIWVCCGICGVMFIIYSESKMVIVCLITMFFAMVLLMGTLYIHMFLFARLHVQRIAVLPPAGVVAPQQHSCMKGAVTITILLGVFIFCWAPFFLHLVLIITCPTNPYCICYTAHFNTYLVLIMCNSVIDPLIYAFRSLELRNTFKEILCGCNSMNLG
Sequence of Melanocortin receptor 3 (Mus musculus) (P33033 whole entry): as above
Sequence of Melanocortin receptor 4 (P56450 whole entry): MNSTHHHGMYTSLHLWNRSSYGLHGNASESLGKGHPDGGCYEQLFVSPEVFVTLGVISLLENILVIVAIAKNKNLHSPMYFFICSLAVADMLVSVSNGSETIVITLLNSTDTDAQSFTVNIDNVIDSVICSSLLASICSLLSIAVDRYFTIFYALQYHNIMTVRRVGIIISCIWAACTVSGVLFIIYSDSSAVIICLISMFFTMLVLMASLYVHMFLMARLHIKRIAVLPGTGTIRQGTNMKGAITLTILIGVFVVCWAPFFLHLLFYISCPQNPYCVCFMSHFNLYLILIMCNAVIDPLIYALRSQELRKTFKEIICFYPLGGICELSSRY
Sequence of Melanocortin receptor 4 (Mus musculus) (P56450 whole entry): as above
Sequence of Melanocortin receptor 5 (P41149 whole entry): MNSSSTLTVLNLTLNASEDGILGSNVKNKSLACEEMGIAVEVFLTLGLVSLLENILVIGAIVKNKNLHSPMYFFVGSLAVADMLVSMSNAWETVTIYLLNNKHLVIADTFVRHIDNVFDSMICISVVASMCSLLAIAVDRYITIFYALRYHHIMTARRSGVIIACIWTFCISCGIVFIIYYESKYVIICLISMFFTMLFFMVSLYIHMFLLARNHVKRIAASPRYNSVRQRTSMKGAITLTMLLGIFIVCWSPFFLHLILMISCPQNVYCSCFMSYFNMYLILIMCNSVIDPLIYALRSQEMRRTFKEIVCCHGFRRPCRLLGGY
Sequence of Melanocortin receptor 5 (Mus musculus) (P41149 whole entry): as above
T1 sequence (Q01727 whole entry): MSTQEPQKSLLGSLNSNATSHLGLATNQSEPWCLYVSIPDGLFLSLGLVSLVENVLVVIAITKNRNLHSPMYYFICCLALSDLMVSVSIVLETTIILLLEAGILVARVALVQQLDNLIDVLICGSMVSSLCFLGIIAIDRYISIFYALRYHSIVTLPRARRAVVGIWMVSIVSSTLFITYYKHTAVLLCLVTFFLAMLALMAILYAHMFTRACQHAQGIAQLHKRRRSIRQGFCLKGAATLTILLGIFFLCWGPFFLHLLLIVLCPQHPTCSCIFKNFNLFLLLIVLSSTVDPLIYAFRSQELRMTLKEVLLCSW
Sequence of Melanocyte-stimulating hormone receptor (Mus musculus) (Q01727 whole entry, looked up): as the sequence (Q01727 whole entry) above

CC(=O)N[C@@H](Cc1cnc[nH]1)C(=O)N[C@@H](CC(C)C)C(=O)N[C@@H](CCCNC(=N)N)C(=O)N[C@@H](Cc1c[nH]c2ccccc12)C(N)=O (Ac-HLRW-NH2)
EC50 [1]: > 100000 nM | EC50 [2]: > 100000 nM | Emax [3]: 25% | Emax [4]: 25%

CC(=O)N[C@@H](Cc1cnc[nH]1)C(=O)N[C@H](C(=O)N[C@@H](CCCNC(=N)N)C(=O)N[C@@H](Cc1c[nH]c2ccccc12)C(N)=O)C(C)C (Ac-HVRW-NH2)
EC50 [5]: > 100000 nM | EC50 [1]: > 100000 nM | EC50 [6]: > 100000 nM | EC50 [2]: > 100000 nM

CC(=O)N[C@@H](Cc1cnc[nH]1)C(=O)N[C@H](Cc1ccccc1)C(=O)N[C@@H](CS)C(=O)N[C@@H](Cc1c[nH]c2ccccc12)C(N)=O
fold change (FC) [7]: 140 | EC50 [5]: 400 nM | EC50 [1]: 6000 nM | EC50 [6]: 1700 nM | EC50 [2]: 3100 nM | Emax [8]: 85% | fold change (FC) [9]: 25

CC(=O)N[C@@H](Cc1c[nH]cn1)C(=O)N[C@@H](Cc1ccccc1)C(=O)N[C@@H](CCCN=C(N)N)C(=O)N[C@@H](Cc1c[nH]c2ccccc12)C(N)=O
EC50 [6]: 220 nM

CC(=O)N[C@@H](CCC(N)=O)C(=O)N[C@H](Cc1ccccc1)C(=O)N[C@@H](CCCNC(=N)N)C(=O)N[C@@H](Cc1c[nH]c2ccccc12)C(N)=O
fold change (FC) [10]: 10 | EC50 [5]: 1600 nM | EC50 [1]: 1300 nM | EC50 [6]: 270 nM | Emax [11]: 80% | EC50 [2]: 270 nM | Emax [8]: 80%

CC(=O)N[C@@H](Cc1cnc[nH]1)C(=O)N[C@H](Cc1ccccc1)C(=O)N[C@@H](CCCN=C(N)N)C(=O)N[C@@H](Cc1c[nH]c2ccccc12)C(N)=O
EC50 [6]: 11 nM | EC50 [2]: 21 nM

CC(=O)N[C@@H](Cc1cnc[nH]1)C(=O)N[C@H](Cc1ccccc1)C(=O)N[C@@H](CCCNC(=N)N)C(=O)NCC(N)=O
EC50 [5]: 1300 nM | EC50 [1]: > 100000 nM | EC50 [6]: > 100000 nM | EC50 [2]: > 100000 nM

CC(=O)N[C@@H](Cc1ccc(O)cc1)C(=O)N[C@H](Cc1ccccc1)C(=O)N[C@@H](CCCNC(=N)N)C(=O)N[C@@H](Cc1c[nH]c2ccccc12)C(N)=O (Ac-Y[dF]RW-NH2)
EC50 [5]: 1200 nM | EC50 [1]: 3000 nM | EC50 [6]: 400 nM | Emax [11]: 65% | EC50 [2]: 90 nM | Emax [8]: 50% | Emax [12]: 80%

CC(=O)N[C@@H](Cc1cnc[nH]1)C(=O)N[C@H](Cc1ccccc1)C(=O)N[C@@H](CCCNC(=N)N)C(=O)N[C@@H](Cc1c[nH]c2ccccc12)C(N)=O
Emax [13]: 30%

CC(=O)N[C@@H](Cc1cnc[nH]1)C(=O)N[C@H](Cc1ccccc1)C(=O)N[C@@H](CCCNC(=N)N)C(=O)N[C@@H](CCCNC(=N)N)C(N)=O
EC50 [5]: 900 nM | EC50 [1]: > 100000 nM | EC50 [2]: > 100000 nM | Emax [4]: 20%

CC(=O)N[C@@H](Cc1cnc[nH]1)C(=O)N[C@H](Cc1ccccc1)C(=O)N[C@@H](CCCNC(=N)N)C(=O)N[C@@H](CC(C)C)C(N)=O
EC50 [5]: 1600 nM | EC50 [2]: > 100000 nM | Emax [13]: 20% | Emax [4]: 40%

CC(=O)N[C@@H](Cc1cnc[nH]1)C(=O)N[C@H](Cc1ccccc1)C(=O)N[C@@H](CC(C)C)C(=O)N[C@@H](Cc1c[nH]c2ccccc12)C(N)=O
EC50 [5]: 90 nM | EC50 [6]: 2000 nM | Emax [11]: 85% | EC50 [2]: 3800 nM | Emax [13]: 25%

CC(=O)N1CCC[C@H]1C(=O)N[C@H](Cc1ccccc1)C(=O)N[C@@H](CCCN=C(N)N)C(=O)N[C@@H](Cc1c[nH]c2ccccc12)C(N)=O (Ac-P[dF]RW-NH2)
EC50 [5]: 2100 nM | EC50 [6]: 2000 nM | Emax [11]: 60% | EC50 [14]: 4000 nM | EC50 [2]: 1000 nM | Emax [12]: 80%

CC(=O)N[C@@H](Cc1cnc[nH]1)C(=O)N[C@H](Cc1ccccc1)C(=O)N[C@@H](Cc1cnc[nH]1)C(=O)N[C@@H](Cc1c[nH]c2ccccc12)C(N)=O
EC50 [5]: 1300 nM | EC50 [1]: 4000 nM | EC50 [6]: 300 nM | EC50 [2]: 500 nM | Emax [8]: 85%

CC(=O)N[C@@H](Cc1cnc[nH]1)C(=O)N[C@H](Cc1ccccc1)C(=O)N[C@@H](CCCNC(=N)N)C(=O)N[C@@H](CO)C(N)=O
EC50 [5]: 1600 nM | EC50 [2]: > 100000 nM | Emax [13]: 50% | Emax [4]: 75%
